Measured values reported in PMC3399817 (PLoS ONE, 2012).

Experiments:
Experiment in all cases: KINOMEscan
Assay type in all cases: binding
MEK3 = target: T1, MEK3 (Homo sapiens, UniProt P46734); conditions: MEK3, 1 uM
T1 construct: purchased Ambit KINOMEscan (DiscoverX)
Method: (§1) First, we used Ambit's KINOMEscan™ technology to identify those kinases that are inhibited for substrate binding by the compounds, all assayed at 1 μM. Second, we used Invitrogen's SelectScreen® Biochemical Kinase Profiling Service to determine the in vitro IC50s for the compounds against specific kinases.

MST2 = target: T2, MST2 (Homo sapiens, UniProt Q13188); conditions: MST2, 1 uM
T2 construct: purchased Ambit KINOMEscan (DiscoverX)
Method: as §1

SYK = target: T3, SYK (Homo sapiens, UniProt P43405); conditions: for % binding compared to no inhibitor control: 1 uM
T3 construct: purchased Ambit KINOMEscan (DiscoverX)
Method: as §1

PAK1 = target: T4, PAK1 (Homo sapiens, UniProt Q13153); conditions: PAK1, 1 uM
T4 construct: purchased Ambit KINOMEscan (DiscoverX)
Method: as §1

TIE1 = target: T5, TIE1 (Homo sapiens, UniProt P35590); conditions: TIE1, 1 uM
T5 construct: purchased Ambit KINOMEscan (DiscoverX)
Method: as §1

TESK1 = target: T6, TESK1 (Homo sapiens, UniProt Q15569); conditions: TESK1, 1 uM
T6 construct: purchased Ambit KINOMEscan (DiscoverX)
T6 sequence (Q15569 whole entry): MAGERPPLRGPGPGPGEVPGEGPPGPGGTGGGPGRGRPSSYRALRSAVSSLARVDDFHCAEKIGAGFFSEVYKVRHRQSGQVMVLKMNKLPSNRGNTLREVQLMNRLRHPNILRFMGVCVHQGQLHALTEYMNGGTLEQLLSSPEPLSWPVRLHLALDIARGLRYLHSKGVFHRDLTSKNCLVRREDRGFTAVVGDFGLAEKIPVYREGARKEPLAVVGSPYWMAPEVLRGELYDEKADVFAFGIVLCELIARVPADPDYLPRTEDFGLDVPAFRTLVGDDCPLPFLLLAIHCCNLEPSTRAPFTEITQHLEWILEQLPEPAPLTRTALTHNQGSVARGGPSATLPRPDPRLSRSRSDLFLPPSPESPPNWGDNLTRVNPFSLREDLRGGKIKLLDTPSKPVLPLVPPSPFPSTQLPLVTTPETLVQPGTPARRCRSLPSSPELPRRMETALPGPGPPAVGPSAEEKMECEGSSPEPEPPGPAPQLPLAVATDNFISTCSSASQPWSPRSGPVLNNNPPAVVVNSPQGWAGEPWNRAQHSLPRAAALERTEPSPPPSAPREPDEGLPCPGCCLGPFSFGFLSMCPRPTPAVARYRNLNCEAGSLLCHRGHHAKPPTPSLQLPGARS
Method: as §1

ITK = target: T7, ITK (Homo sapiens, UniProt Q08881); conditions: 1 uM
T7 construct: purchased Ambit KINOMEscan (DiscoverX)
Method: as §1

LATS1 = target: T8, LATS1 (Homo sapiens, UniProt O95835); conditions: LATS1, 1 uM
T8 construct: purchased Ambit KINOMEscan (DiscoverX)
Method: as §1

BRK = target: T9, BRK (Homo sapiens, UniProt Q13882); conditions: 1 uM
T9 construct: purchased Ambit KINOMEscan (DiscoverX)
Method: as §1

LKB1 = target: T10, LKB1 (Homo sapiens, UniProt Q15831); conditions: LKB1, 1 uM
T10 construct: purchased Ambit KINOMEscan (DiscoverX)
Method: as §1

PLK3 = target: T11, PLK3 (Homo sapiens, UniProt Q9H4B4); conditions: PLK3, 1 uM
T11 construct: purchased Ambit KINOMEscan (DiscoverX)
Method: as §1

ICK = target: T12, ICK (Homo sapiens, UniProt Q9UPZ9); conditions: 1 uM
T12 construct: purchased Ambit KINOMEscan (DiscoverX)
Method: as §1

SgK110 = target: T13, SgK110 (Homo sapiens, UniProt P0C264); conditions: SgK110, 1 uM
T13 construct: purchased Ambit KINOMEscan (DiscoverX)
Method: as §1

ULK2 = target: T14, ULK2 (Homo sapiens, UniProt Q8IYT8); conditions: ULK2, 1 uM
T14 construct: purchased Ambit KINOMEscan (DiscoverX)
Method: as §1

[1] = target: T15, TYK2(JH2domain-pseudokinase) (Homo sapiens, UniProt P29597); conditions: 1 uM
T15 construct: TYK2(JH2domain-pseudokinase); purchased Ambit KINOMEscan (DiscoverX)
T15 sequence (P29597 556-888 limits assumed): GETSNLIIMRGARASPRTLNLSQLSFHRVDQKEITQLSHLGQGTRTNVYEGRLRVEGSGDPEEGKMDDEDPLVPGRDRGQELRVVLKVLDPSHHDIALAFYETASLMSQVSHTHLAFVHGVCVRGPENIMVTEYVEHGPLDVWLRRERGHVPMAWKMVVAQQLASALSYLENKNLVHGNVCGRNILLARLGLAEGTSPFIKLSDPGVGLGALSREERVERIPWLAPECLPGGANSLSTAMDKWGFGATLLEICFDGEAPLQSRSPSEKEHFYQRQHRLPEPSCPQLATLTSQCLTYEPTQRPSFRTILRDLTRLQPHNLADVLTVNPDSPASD
Method: as §1

TXK = target: T16, TXK (Homo sapiens, UniProt P42681); conditions: 1 uM
T16 construct: purchased Ambit KINOMEscan (DiscoverX)
Method: as §1

[2] = target: T17, ABL1(H396P)-nonphosphorylated (Homo sapiens, UniProt P00519, H396P); conditions: 1 uM
T17 construct: purchased Ambit KINOMEscan (DiscoverX)
Method: as §1

PIK3CA(E545K) = target: T18, PIK3CA(E545K) (Homo sapiens, UniProt P42336, E545K); conditions: 1 uM
T18 construct: purchased Ambit KINOMEscan (DiscoverX)
T18 sequence (P42336 whole entry E545K): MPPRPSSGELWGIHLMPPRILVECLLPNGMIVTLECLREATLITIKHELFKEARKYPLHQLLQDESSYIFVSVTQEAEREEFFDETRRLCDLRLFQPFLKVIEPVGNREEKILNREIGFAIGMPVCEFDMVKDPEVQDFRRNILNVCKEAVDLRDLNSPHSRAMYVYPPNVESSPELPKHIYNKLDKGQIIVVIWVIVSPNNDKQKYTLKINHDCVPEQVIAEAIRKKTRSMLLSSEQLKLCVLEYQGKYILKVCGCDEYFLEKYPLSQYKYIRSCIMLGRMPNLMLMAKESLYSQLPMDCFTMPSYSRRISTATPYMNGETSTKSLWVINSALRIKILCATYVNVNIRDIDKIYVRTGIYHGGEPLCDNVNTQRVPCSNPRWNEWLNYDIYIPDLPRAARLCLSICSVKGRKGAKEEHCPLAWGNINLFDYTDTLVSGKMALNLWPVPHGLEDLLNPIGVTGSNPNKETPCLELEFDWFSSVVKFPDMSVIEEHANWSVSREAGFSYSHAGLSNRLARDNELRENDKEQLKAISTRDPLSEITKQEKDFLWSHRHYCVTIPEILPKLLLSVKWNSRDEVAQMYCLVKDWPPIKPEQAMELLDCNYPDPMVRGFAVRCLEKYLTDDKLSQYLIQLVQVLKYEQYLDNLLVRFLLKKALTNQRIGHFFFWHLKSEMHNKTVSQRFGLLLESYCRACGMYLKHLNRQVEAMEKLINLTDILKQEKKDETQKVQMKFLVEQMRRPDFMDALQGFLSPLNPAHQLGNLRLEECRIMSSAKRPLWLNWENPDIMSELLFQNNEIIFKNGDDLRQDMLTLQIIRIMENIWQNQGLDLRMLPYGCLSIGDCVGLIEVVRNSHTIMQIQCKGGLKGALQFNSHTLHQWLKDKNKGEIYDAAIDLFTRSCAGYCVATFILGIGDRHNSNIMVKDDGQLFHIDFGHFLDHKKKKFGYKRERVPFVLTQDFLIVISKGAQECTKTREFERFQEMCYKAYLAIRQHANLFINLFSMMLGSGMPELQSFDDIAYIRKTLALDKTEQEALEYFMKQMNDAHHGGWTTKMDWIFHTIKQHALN
Method: as §1

CDK8 = target: T19, CDK8 (Homo sapiens, UniProt P49336); conditions: CDK8, 1 uM
T19 construct: purchased Ambit KINOMEscan (DiscoverX)
Method: as §1

NEK5 = target: T20, NEK5 (Homo sapiens, UniProt Q6P3R8); conditions: NEK5, 1 uM
T20 construct: purchased Ambit KINOMEscan (DiscoverX)
Method: as §1

DMPK2 = target: T21, DMPK2 (Homo sapiens, UniProt Q6DT37); conditions: DMPK2, 1 uM
T21 construct: purchased Ambit KINOMEscan (DiscoverX)
Method: as §1

p38-gamma = target: T22, p38-gamma (Homo sapiens, UniProt P53778); conditions: 1 uM
T22 construct: purchased Ambit KINOMEscan (DiscoverX)
Method: as §1

AMPK-alpha2 = target: T23, AMPK-alpha2 (Homo sapiens, UniProt P54646); conditions: AMPK-alpha2, 1 uM
T23 construct: purchased Ambit KINOMEscan (DiscoverX)
Method: as §1

GRK4 = target: T24, GRK4 (Homo sapiens, UniProt P32298); conditions: GRK4, 1 uM
T24 construct: purchased Ambit KINOMEscan (DiscoverX)
Method: as §1

PRKX = target: T25, PRKX (Homo sapiens, UniProt P51817); conditions: 1 uM
T25 construct: purchased Ambit KINOMEscan (DiscoverX)
Method: as §1

PRKG1 = target: T26, PRKG1 (Homo sapiens, UniProt Q13976); conditions: PRKG1, 1 uM
T26 construct: purchased Ambit KINOMEscan (DiscoverX)
Method: as §1

FGFR3 = target: T27, FGFR3 (Homo sapiens, UniProt P22607); conditions: FGFR3, 1 uM
T27 construct: purchased Ambit KINOMEscan (DiscoverX)
T27 sequence (P22607 23-806): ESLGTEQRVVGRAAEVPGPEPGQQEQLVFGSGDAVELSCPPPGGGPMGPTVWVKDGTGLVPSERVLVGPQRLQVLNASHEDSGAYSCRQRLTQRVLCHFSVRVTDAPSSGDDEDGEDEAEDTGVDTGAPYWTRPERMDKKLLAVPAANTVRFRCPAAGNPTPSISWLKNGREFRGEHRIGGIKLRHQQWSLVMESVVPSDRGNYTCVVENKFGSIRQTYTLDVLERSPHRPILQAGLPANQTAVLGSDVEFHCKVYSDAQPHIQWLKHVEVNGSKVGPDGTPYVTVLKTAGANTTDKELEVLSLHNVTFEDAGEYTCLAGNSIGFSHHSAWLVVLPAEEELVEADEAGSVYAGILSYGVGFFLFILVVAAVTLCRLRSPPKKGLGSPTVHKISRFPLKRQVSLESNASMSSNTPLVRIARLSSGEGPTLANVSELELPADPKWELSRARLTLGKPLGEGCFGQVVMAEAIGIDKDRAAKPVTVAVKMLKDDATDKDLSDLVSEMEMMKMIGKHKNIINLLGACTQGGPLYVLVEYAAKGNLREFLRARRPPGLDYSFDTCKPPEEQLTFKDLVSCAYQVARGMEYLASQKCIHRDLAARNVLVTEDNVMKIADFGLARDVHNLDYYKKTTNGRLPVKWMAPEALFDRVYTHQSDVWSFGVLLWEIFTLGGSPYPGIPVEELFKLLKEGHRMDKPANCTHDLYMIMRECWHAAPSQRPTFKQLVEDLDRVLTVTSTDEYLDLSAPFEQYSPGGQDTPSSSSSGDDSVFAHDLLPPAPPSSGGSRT
Method: as §1

STK35 = target: T28, STK35 (Homo sapiens, UniProt Q8TDR2); conditions: STK35, 1 uM
T28 construct: purchased Ambit KINOMEscan (DiscoverX)
Method: as §1

CSNK2A1 = target: T29, CSNK2A1 (Homo sapiens, UniProt P68400); conditions: CSNK2A1, 1 uM
T29 construct: purchased Ambit KINOMEscan (DiscoverX)
Method: as §1

TGFBR1 = target: T30, TGFBR1 (Homo sapiens, UniProt P36897); conditions: TGFBR1, 1 uM
T30 construct: purchased Ambit KINOMEscan (DiscoverX)
Method: as §1

HIPK3 = target: T31, HIPK3 (Homo sapiens, UniProt Q9H422); conditions: HIPK3, 1 uM
T31 construct: purchased Ambit KINOMEscan (DiscoverX)
T31 sequence (Q9H422 whole entry): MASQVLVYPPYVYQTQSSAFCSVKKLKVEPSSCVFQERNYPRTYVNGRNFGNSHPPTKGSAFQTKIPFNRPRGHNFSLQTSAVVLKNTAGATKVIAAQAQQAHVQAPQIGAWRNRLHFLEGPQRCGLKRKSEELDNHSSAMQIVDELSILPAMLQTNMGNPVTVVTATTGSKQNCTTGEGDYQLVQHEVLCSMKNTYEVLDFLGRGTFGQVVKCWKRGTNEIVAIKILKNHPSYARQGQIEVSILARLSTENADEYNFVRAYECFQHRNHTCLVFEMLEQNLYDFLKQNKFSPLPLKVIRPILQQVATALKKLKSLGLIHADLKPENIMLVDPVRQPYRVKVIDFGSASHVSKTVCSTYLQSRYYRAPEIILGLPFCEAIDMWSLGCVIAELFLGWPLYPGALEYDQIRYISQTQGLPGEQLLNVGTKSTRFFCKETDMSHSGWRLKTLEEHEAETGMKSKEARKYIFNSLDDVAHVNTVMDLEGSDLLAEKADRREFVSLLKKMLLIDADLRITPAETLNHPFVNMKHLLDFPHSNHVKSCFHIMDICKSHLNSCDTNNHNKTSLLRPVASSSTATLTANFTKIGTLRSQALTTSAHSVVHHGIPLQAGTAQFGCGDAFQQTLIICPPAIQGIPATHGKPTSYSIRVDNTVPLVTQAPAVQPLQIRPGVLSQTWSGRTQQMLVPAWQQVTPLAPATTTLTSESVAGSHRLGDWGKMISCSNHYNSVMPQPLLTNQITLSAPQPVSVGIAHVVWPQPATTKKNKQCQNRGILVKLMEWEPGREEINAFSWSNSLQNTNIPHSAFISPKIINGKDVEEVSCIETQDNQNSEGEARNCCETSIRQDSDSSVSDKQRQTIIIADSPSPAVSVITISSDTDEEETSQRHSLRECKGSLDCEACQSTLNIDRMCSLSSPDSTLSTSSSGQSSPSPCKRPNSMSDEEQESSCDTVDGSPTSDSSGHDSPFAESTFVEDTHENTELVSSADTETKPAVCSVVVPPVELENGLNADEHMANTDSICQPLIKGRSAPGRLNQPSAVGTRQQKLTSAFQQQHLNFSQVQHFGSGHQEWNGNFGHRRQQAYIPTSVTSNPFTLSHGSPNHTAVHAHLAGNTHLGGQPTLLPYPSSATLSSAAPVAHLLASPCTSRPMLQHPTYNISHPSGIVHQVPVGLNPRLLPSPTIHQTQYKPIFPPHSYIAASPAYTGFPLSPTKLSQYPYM
Method: as §1

[3] = target: T32, JAK1(JH1domain-catalytic) (Homo sapiens, UniProt P23458); conditions: 1 uM
T32 construct: JAK1(JH1domain-catalytic); purchased Ambit KINOMEscan (DiscoverX)
T32 sequence (P23458 875-1154 limits assumed): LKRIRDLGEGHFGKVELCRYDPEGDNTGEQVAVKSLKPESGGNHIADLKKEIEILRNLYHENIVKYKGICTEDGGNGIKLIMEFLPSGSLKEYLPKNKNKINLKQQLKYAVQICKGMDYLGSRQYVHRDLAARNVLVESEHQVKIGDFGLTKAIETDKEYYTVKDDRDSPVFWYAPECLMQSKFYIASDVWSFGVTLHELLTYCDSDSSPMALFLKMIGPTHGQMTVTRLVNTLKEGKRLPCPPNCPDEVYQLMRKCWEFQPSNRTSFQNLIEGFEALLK
Method: as §1

MET = target: T33, MET (Homo sapiens, UniProt P08581); conditions: 1 uM
T33 construct: purchased Ambit KINOMEscan (DiscoverX)
Method: as §1

DDR2 = target: T34, DDR2 (Homo sapiens, UniProt Q16832); conditions: DDR2, 1 uM
T34 construct: purchased Ambit KINOMEscan (DiscoverX)
Method: as §1

EPHA8 = target: T35, EPHA8 (Homo sapiens, UniProt P29322); conditions: EPHA8, 1 uM
T35 construct: purchased Ambit KINOMEscan (DiscoverX)
Method: as §1

PIM1 = target: T36, PIM1 (Homo sapiens, UniProt P11309); conditions: PIM1, 1 uM
T36 construct: purchased Ambit KINOMEscan (DiscoverX)
T36 sequence (P11309 whole entry): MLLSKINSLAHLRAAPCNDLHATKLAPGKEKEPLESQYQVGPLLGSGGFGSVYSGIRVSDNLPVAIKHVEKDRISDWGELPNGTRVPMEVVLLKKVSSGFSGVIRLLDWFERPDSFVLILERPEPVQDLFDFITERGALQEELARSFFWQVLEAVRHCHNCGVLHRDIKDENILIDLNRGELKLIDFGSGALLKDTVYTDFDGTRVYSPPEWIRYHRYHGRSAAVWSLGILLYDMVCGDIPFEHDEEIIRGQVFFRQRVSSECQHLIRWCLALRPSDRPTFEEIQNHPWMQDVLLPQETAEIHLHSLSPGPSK
Method: as §1

CDK9 = target: T37, CDK9 (Homo sapiens, UniProt P50750); conditions: for % binding compared to no inhibitor control: CDK9, 1 uM
T37 construct: purchased Ambit KINOMEscan (DiscoverX)
T37 sequence (P50750 whole entry): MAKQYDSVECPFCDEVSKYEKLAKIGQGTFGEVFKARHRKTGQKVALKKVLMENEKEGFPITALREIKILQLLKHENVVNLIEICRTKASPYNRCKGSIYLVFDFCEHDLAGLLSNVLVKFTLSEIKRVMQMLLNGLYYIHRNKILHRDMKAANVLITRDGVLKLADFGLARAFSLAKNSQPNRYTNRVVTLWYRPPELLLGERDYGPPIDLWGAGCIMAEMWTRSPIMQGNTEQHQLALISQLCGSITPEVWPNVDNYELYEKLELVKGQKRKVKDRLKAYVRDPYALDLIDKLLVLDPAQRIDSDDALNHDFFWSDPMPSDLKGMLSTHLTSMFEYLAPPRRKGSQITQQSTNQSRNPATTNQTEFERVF
Method: as §1

MAP3K3 = target: T38, MAP3K3 (Homo sapiens, UniProt Q99759); conditions: MAP3K3, 1 uM
T38 construct: purchased Ambit KINOMEscan (DiscoverX)
Method: as §1

SNARK = target: T39, SNARK (Homo sapiens, UniProt Q9H093); conditions: 1 uM
T39 construct: purchased Ambit KINOMEscan (DiscoverX)
Method: as §1

COc1ccc(-c2cc3nccn3c(Nc3ncccc3C(N)=O)n2)cc1OC.Cl.Cl [BAY61-3606, 2-[7-(3,4-dimethoxyphenyl)-imidazo [1,2-c]pyrimidin-5-ylamino] nicotinamide dihydrochloride, reference compound]
% binding compared to no inhibitor control (MEK3): 21% | % binding compared to no inhibitor control (MST2): 97% | % binding compared to no inhibitor control (SYK): 6.1% | % inhibition ATP binding (SYK; KINOMEscan, 1 μM): 93.9% | % binding compared to no inhibitor control (PAK1): 94% | % binding compared to no inhibitor control (TIE1): 100% | % binding compared to no inhibitor control (TESK1): 90% | % binding compared to no inhibitor control (ITK): 100% | % binding compared to no inhibitor control (LATS1): 100% | % binding compared to no inhibitor control (BRK): 87% | % binding compared to no inhibitor control (LKB1): 95% | % binding compared to no inhibitor control (PLK3): 37% | % binding compared to no inhibitor control (ICK): 23% | % binding compared to no inhibitor control (SgK110): 100% | % binding compared to no inhibitor control (ULK2): 69% | % binding compared to no inhibitor control [1]: 9.2% | % binding compared to no inhibitor control (TXK): 95% | % binding compared to no inhibitor control [2]: 96% | % binding compared to no inhibitor control (PIK3CA(E545K)): 100% | % binding compared to no inhibitor control (CDK8): 62% | % binding compared to no inhibitor control (NEK5): 86% | % binding compared to no inhibitor control (DMPK2): 86% | % binding compared to no inhibitor control (p38-gamma): 47% | % binding compared to no inhibitor control (AMPK-alpha2): 83% | % binding compared to no inhibitor control (GRK4): 73% | % binding compared to no inhibitor control (PRKX): 75% | % binding compared to no inhibitor control (PRKG1): 70% | % binding compared to no inhibitor control (FGFR3): 100% | % binding compared to no inhibitor control (STK35): 88% | % binding compared to no inhibitor control (CSNK2A1): 70% | % binding compared to no inhibitor control (TGFBR1): 99% | % binding compared to no inhibitor control (HIPK3): 36% | % binding compared to no inhibitor control [3]: 71% | % binding compared to no inhibitor control (MET): 100% | % binding compared to no inhibitor control (DDR2): 74% | % binding compared to no inhibitor control (EPHA8): 83% | % binding compared to no inhibitor control (PIM1): 78% | % binding compared to no inhibitor control (CDK9): 56% | % inhibition ATP binding (CDK9; CDK9, KINOMEscan, 1 μM): 44% | % binding compared to no inhibitor control (MAP3K3): 97% | % binding compared to no inhibitor control (SNARK): 32%

COc1ccccc1Nc1nc(-c2ccc(OC)c(OC)c2)cc2nccn12 [BAY derivative 6]
% binding compared to no inhibitor control (MEK3): 94% | % binding compared to no inhibitor control (MST2): 82% | % binding compared to no inhibitor control (SYK): 48% | % binding compared to no inhibitor control (PAK1): 83% | % binding compared to no inhibitor control (TIE1): 94% | % binding compared to no inhibitor control (TESK1): 100% | % binding compared to no inhibitor control (ITK): 100% | % binding compared to no inhibitor control (LATS1): 100% | % binding compared to no inhibitor control (BRK): 59% | % binding compared to no inhibitor control (LKB1): 72% | % binding compared to no inhibitor control (PLK3): 100% | % binding compared to no inhibitor control (ICK): 100% | % binding compared to no inhibitor control (SgK110): 100% | % binding compared to no inhibitor control (ULK2): 86% | % binding compared to no inhibitor control [1]: 37% | % binding compared to no inhibitor control (TXK): 78% | % binding compared to no inhibitor control [2]: 92% | % binding compared to no inhibitor control (PIK3CA(E545K)): 100% | % binding compared to no inhibitor control (CDK8): 100% | % binding compared to no inhibitor control (NEK5): 72% | % binding compared to no inhibitor control (DMPK2): 88% | % binding compared to no inhibitor control (p38-gamma): 56% | % binding compared to no inhibitor control (AMPK-alpha2): 100% | % binding compared to no inhibitor control (GRK4): 100% | % binding compared to no inhibitor control (PRKX): 73% | % binding compared to no inhibitor control (PRKG1): 100% | % binding compared to no inhibitor control (FGFR3): 100% | % binding compared to no inhibitor control (STK35): 91% | % binding compared to no inhibitor control (CSNK2A1): 86% | % binding compared to no inhibitor control (TGFBR1): 99% | % binding compared to no inhibitor control (HIPK3): 95% | % binding compared to no inhibitor control [3]: 48% | % binding compared to no inhibitor control (MET): 100% | % binding compared to no inhibitor control (DDR2): 100% | % binding compared to no inhibitor control (EPHA8): 100% | % binding compared to no inhibitor control (PIM1): 100% | % binding compared to no inhibitor control (CDK9): 100% | % binding compared to no inhibitor control (MAP3K3): 85% | % binding compared to no inhibitor control (SNARK): 89%
